Source: patent US9650384B2, “Substituted pyrimidine compounds and methods of use and manufacture” (Duquesne University of the Holy Spirit, priority 2014, dated 2017)
Read-outs that look alike come from different tables or passages of the source.

Key:
[1] = molecular target: T1, GARFTase (Homo sapiens, UniProt P22102); conditions: reported in reference 1; cited from earlier work
T1 sequence (P22102 1-1010): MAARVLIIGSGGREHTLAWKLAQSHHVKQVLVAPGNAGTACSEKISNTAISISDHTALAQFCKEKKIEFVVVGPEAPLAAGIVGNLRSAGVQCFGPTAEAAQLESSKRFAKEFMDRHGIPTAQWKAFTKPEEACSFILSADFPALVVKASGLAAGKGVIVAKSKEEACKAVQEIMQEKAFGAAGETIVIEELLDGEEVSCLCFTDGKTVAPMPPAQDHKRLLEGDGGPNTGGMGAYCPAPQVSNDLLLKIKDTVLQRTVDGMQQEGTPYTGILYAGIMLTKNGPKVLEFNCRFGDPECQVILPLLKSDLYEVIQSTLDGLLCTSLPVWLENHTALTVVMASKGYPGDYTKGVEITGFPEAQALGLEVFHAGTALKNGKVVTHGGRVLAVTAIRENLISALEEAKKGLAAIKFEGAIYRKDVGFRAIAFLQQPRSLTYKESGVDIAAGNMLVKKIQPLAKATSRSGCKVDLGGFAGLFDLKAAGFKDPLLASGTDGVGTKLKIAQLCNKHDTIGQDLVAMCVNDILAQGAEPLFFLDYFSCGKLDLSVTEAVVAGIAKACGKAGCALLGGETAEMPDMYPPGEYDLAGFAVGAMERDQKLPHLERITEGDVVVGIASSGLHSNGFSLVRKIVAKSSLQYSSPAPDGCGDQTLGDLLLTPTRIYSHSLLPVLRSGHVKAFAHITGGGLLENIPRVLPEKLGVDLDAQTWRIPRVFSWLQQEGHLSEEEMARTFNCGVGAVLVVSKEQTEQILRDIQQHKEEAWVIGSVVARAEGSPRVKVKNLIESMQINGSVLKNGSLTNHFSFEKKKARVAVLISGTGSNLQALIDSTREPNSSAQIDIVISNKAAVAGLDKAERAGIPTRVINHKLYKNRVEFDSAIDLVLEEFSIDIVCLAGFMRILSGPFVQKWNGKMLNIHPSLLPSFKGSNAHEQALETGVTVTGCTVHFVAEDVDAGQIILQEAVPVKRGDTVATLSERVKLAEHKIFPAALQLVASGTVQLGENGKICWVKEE

[2] = test system: CHO subline engineered to express human PCFT (R2/PCFT4); assay: Growth inhibition assay, CHO subline R2/PCFT4 expressing PCFT; format: cell-based; conditions: R2/PCFT4 cells
[3] = molecular target: AICARFTase (Homo sapiens, UniProt P31939); conditions: reported in reference 1; cited from earlier work
Sequence of AICARFTase (P31939 whole entry): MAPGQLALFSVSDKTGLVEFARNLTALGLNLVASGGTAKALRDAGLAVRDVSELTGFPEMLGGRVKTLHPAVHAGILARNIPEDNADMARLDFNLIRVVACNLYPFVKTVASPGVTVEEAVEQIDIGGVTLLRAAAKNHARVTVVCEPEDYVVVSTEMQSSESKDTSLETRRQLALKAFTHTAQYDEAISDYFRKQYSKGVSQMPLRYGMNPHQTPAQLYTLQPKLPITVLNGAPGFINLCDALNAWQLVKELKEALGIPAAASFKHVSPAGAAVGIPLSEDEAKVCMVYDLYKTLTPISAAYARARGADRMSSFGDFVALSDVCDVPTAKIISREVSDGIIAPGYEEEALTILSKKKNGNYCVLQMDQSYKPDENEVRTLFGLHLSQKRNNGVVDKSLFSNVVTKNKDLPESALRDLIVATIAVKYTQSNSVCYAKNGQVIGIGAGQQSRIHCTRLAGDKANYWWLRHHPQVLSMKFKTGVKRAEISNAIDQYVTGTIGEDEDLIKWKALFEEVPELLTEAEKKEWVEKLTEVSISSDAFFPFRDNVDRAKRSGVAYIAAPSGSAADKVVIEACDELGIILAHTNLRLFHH

[4] = test system: KB human tumor subline (expressing RFC, FRα, and PCFT); assay: Growth inhibition assay, KB human tumor subline; format: cell-based
[5] = test system: CHO subline engineered to express human RFC (PC43-10); assay: Growth inhibition assay, CHO subline PC43-10 expressing human RFC; format: cell-based
[6] = test system: CHO subline engineered to express human FRα (RT16); assay: Growth inhibition assay, CHO subline RT16 expressing FRα; format: cell-based; conditions: read-out: IC50 RT16, FR
[7] = test system: transporter-null (R2) CHO cells; assay: Growth inhibition assay, transporter-null R2 CHO cells; format: cell-based; conditions: Cricetulus griseus, Table 1, mean of 3 to 10 experiments
[8] = Table 1, growth inhibition by 50% relative to cells without drug, mean of 3 to 10 experiments

SMILES	inhibition of GARFTase [1]	IC50 ([2]; Table 1, mean of 3 to 10 experiments)	IC50 ([2]; Table 2)	inhibition of AICARFTase [3]	IC50 [4, 8]	IC50 ([4]; Table 2)	IC50 [5, 8]	IC50 ([5]; Table 2)	IC50 [6, 8]	IC50 ([6]; Table 2)	IC50 [7]
Nc1nc2[nH]cc(CCCCc3ccc(C(=O)N[C@@H](CCC(=O)O)C(=O)O)cc3)c2c(=O)[nH]1 [Compound 3]	inhibited	840 nM	840 nM	inhibited	12.7 nM	12.7 nM	56.6 nM	56.6 nM	8.6 nM	8.6 nM	
Nc1nc2[nH]cc(CCCOc3ccc(C(=O)N[C@@H](CCC(=O)O)C(=O)O)cc3)c2c(=O)[nH]1 [Compound 9]			390 nM			51 nM		53.2 nM		42.2 nM	
Nc1nc2[nH]cc(CCCSc3ccc(C(=O)N[C@@H](CCC(=O)O)C(=O)O)cc3)c2c(=O)[nH]1 [Compound 10]			549 nM			> 1000 nM		> 1000 nM		281 nM	
Nc1nc2[nH]cc(CCCCc3cccc(C(=O)N[C@@H](CCC(=O)O)C(=O)O)c3)c2c(=O)[nH]1 [Compound 11]			> 1000 nM			> 1000 nM		608 nM		> 1000 nM	
Nc1nc2[nH]cc(CCc3ccc(C(=O)N[C@@H](CCC(=O)O)C(=O)O)cc3)c2c(=O)[nH]1 [PMX, Pemetrexed]						9.94 nM		30.6 nM			> 1000 nM
